Assay results: patent US20250353825A1, “CANNABICYCLOL DERIVATIVES AND PREPARATION METHODS THEREOF” (priority 2023, published 2025)
Like-named read-outs stand apart in the source and are kept apart here.

Assays:
Type in all cases: cell-based
GSC-3 (3#-GSC) = test: MTS cell viability assay, glioblastoma stem cells GSC-3 (3#-GSC); settings: for selective anti-glioma stem cell viability: judged in words from preliminary viability screening against 3#-GSC, 293T and U251
Method: (§1) Primary viability screening: (1) the synthesized compounds 3a to 13d were respectively dissolved in DMSO to prepare a 40 μg/mL cannabicyclol and cannabicyclol derivative solutions.
(§2) (2) A control group: a 200 μL DMSO solvent.
(§3) (3) The solutions of compounds 3a to 13d were diluted in a twofold gradient to obtain cannabicyclol and cannabicyclol derivative solutions at concentrations of 40 μg/mL, 20 μg/mL, 10 μg/mL, 5 μg/mL, 2.5 μg/mL, 1.25 μg/mL, and 0.625 μg/mL, and 0.3125 μg/mL, respectively.
(§4) (4) Three glioblastoma stem cells (GSC-3, GSC-12, and GSC-18), three pancreatic cancer cell-derived stem cells (PANC-1-CSC, BXPC-3-CSC, and ASPC1-CSC), three liver cancer cell-derived stem cells (HepG2-CSC, MHCC97H-CSC, and SMMC7721-CSC), HEK-293T cells, 16 tumor cells (U251, U87, T98G, PANC1, BXPC3, ASPC1, HepG2, MHCC97H, SMMC7721, PC3, SKOV3, MDA-MB231, A549, HCT116, HEC-1B, MKN28), and differentiated glioblastoma stem cells (GSC-3diff and GSC-12diff) derived from GSC-3 and GSC-12 (all of the cells were provided by the Laboratory of Tumor Animal Model Preparation and Application Research, West China Hospital, Sichuan University) were inoculated into a 96-well plate at a concentration of 2×10^4 cells/well, and 100 μL of culture medium was then added to each well;
(§5) (5) 2) HEK-293T, GSC-3diff, GSC-12diff, and the 16 tumor cells were added with DMEM, 10% FBS, and 1% double antibody culture medium. Cancer stem cells (CSCs) were added with serum-free stem cell medium consisting of DMEM/F12, EGF (20 ng/mL), bFGF (20 ng/mL), B27 (1×), and 1% double antibody culture medium.
(§6) (6) Inoculated cells were put into a cell culture incubator for 24 hours, and after the cells were well adhered to the wall, the culture medium in the 96-well plate was discarded.
(§7) (7) 200 μL cannabicyclol and cannabicyclol derivatives solutions at different concentrations were added to the cultured cells.
(§8) (8) The experiment was set up with 3 replicates.
(§9) (9) The 96-well plate was placed in a cell culture incubator, and incubation was continued at 37° C. and 5% CO2 for 72 hours. Then, 100 μL of cannabicyclol and cannabicyclol derivative solution per well was discarded (100 μL of DMSO solvent was discarded for the control group), and 20 μL of LMTS (CellTiter AQueous Non-Radioactive Cell Proliferation Assay, #G3581) was mixed and continued to be placed in the cell incubator for 2 hours of incubation.
(§10) (10) The absorbance value at 490 nm was measured on an enzyme labeling apparatus, and the IC50 value was calculated.

U251 = test: MTS cell viability assay, U251
Method: as §1, §2, §3, §4, §5, §6, §7, §8, §9, §10

[1] = MTS cell viability assay, HEK-293T (293T) normal cells; settings: human
Method: as §1, §2, §3, §4, §5, §6, §7, §8, §9, §10

[2] = primary viability screening, 72 hours, MTS, test concentration not stated
[3] = HEK-293T (293T) normal cells, primary viability screening, 72 hours, MTS, test concentration not stated, read-out: Cell viability in 293T (%)

Structure (SMILES)	Cell viability in 3#-GSC (%) (GSC-3 (3#-GSC); [2])	Cell viability in U251 (%) (U251; [2])	viability at 72 h [1, 3] [%]	Cell viability in 3#-GSC (%) (GSC-3 (3#-GSC); 72 h)	Cell viability in U251 (%) (U251; human, 72 h)	viability at 72 h [1] [%]	selective anti-glioma stem cell viability (GSC-3 (3#-GSC))
CCCCCCCCCCCCCc1cc(O)c2c(c1)OC1(C)CCC3C1C2C3(C)C (stereo not drawn) [Compound 3i]	33	79	8	–	–	–	–
Cc1ccc(-c2cc(O)c3c(c2)OC2(C)CCC4C2C3C4(C)C)cc1 (stereo not drawn) [Compound 3l]	–	–	–	51	45	62	–
CCCCc1cc(O)c2c(c1)OC1(C)CCC3C1C2C3(C)C (stereo not drawn) [Compound 3e]	30	17	60	–	–	–	–
CCCCCc1cc(OC(=O)CCCC[P+](c2ccccc2)(c2ccccc2)c2ccccc2)c2c(c1)OC1(C)CCC3C1C2C3(C)C (stereo not drawn) [Compound 9s]	–	–	–	40	17	21	–
Cc1cc(O)c2c(c1)OC1(C)CCC3C1C2C3(C)C (stereo not drawn) [Compound 3c]	–	–	–	≥100	88	≥ 100	–
CCCCCCCCc1cc(O)c2c(c1)OC1(C)CCC3C1C2C3(C)C (stereo not drawn) [Compound 3h]	87	75	16	–	–	–	–
CCCCCc1cc(O)c2c(c1)OC1(C)CCC3C(C)C2C31 (stereo not drawn) [Compound 3u]	30	72	78	–	–	–	–
CC12CCC3C1C(c1c(O)cc(-c4ccc(Cl)cc4)cc1O2)C3(C)C (stereo not drawn) [Compound 3s]	–	–	–	49	91	64	–
CCCCCc1cc(OC(=O)c2ccco2)c2c(c1)OC1(C)CCC3C1C2C3(C)C (stereo not drawn) [Compound 9j]	≥100	≥100	≥ 100	–	–	–	–
CCCCCc1cc(OC(=O)Cc2ccc3ccccc3c2)c2c(c1)OC1(C)CCC3C1C2C3(C)C (stereo not drawn) [Compound 9e]	≥100	≥100	≥ 100	–	–	–	–
CCCCCCCc1cc(O)c2c(c1)OC1(C)CCC3C1C2C3(C)C (stereo not drawn) [Compound 3g]	90	79	11	–	–	–	–
Cc1ccccc1-c1cc(O)c2c(c1)OC1(C)CCC3C1C2C3(C)C (stereo not drawn) [Compound 3n]	–	–	–	41	17	50	–
CCCCCc1cc(OC(C)=O)c2c(c1)OC1(C)CCC3C1C2C3(C)C (stereo not drawn) [Compound 9b]	28	82	92	–	–	–	both the viability and selectivity were maintained
C=CC(=O)Oc1cc(CCCCC)cc2c1C1C3C(CCC3(C)O2)C1(C)C (stereo not drawn) [Compound 9f]	41	64	35	–	–	–	–
CCCCCCc1cc(O)c2c(c1)OC1(C)CCC3C1C2C3(C)C (stereo not drawn) [Compound 3f]	20	78	18	–	–	–	a certain degree of selective anti-glioma stem cell viability
CCCCCc1cc(OC(=O)c2ccncc2)c2c(c1)OC1(C)CCC3C1C2C3(C)C (stereo not drawn) [Compound 9i]	91	88	91	–	–	–	–
CCCCCc1cc(O)c2c(c1)OC1(C)CCC3C(C4CC4)C2C31 (stereo not drawn) [Compound 3y]	47	98	≥ 100	–	–	–	–
COc1ccc(-c2cc(O)c3c(c2)OC2(C)CCC4C2C3C4(C)C)cc1 (stereo not drawn) [Compound 3q]	–	–	–	39	19	40	–
Cc1cccc(-c2cc(O)c3c(c2)OC2(C)CCC4C2C3C4(C)C)c1 (stereo not drawn) [Compound 3m]	–	–	–	42	90	≥ 100	weak selective anti-glioma stem cell viability
